Reference: ChEMBL document CHEMBL1201862, “PubChem BioAssay data set” (2004)
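Five compound concentrations were applied to cells in 96-well plates for 48 hours; endpoints were derived by simple linear interpolation of the resulting dose-response curve. At the GI50, growth is halved.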 Active and inactive are the calls of the source. No stated cut-off is given here; in the data, active = GI50 up to about 1.1 µM and inactive = higher.

Tests used:
Experiment in all cases: DTP human tumour cell line panel, 48 h
HT-29 = system: HT-29
NCI-H460 = system: NCI-H460
OVCAR-3 = system: OVCAR-3
T47D = system: T47D
SR = system: SR
K562 = system: K562
NCI/ADR-RES = system: NCI/ADR-RES
KM12 = system: KM12
U-251 = system: U-251
HCC 2998 = system: HCC 2998
Malme-3M = system: Malme-3M
OVCAR-5 = system: OVCAR-5
HOP-62 = system: HOP-62
IGROV-1 = system: IGROV-1
A498 = system: A498
SK-MEL-5 = system: SK-MEL-5
CCRF-CEM = system: CCRF-CEM
A549 = system: A549
SNB-19 = system: SNB-19
UACC-257 = system: UACC-257

Row | SMILES | GI50 (HT-29) | GI50 (NCI-H460) | GI50 (OVCAR-3) | GI50 (T47D) | GI50 (SR) | GI50 (K562) | GI50 (NCI/ADR-RES) | GI50 (KM12) | GI50 (U-251) | GI50 (HCC 2998) | GI50 (Malme-3M) | GI50 (OVCAR-5) | GI50 (HOP-62) | GI50 (IGROV-1) | GI50 (A498) | GI50 (SK-MEL-5) | GI50 (CCRF-CEM) | GI50 (A549) | GI50 (SNB-19) | GI50 (UACC-257)
1 | O=C(CC(=O)c1ccncc1)c1ccccc1 | > 77.8 µM (inactive) | 32.9 µM (inactive) | > 85.3 µM (inactive) | > 100 µM (inactive) | 22.1 µM (inactive) | 45.1 µM (inactive) | 24.3 µM (inactive) | > 100 µM (inactive) | 49.7 µM (inactive) | > 67.1 µM (inactive) | 40.3 µM (inactive) | > 100 µM (inactive) | 71.8 µM (inactive) | > 100 µM (inactive) | > 100 µM (inactive) | 90.4 µM (inactive) | 11.9 µM (inactive) | > 100 µM (inactive) | > 100 µM (inactive) | > 85.7 µM (inactive)
2 | CC(C)CCNC(=O)c1ccc(CNC(=O)/C=C/c2ccc3c(c2)-c2ccccc2C3)cc1 | 41.5 µM (inactive) | 57.4 µM (inactive) | 23.4 µM (inactive) | 39 µM (inactive) | 34.9 µM (inactive) | 64.3 µM (inactive) | 34.2 µM (inactive) | 33.3 µM (inactive) | 24.7 µM (inactive) | 71.3 µM (inactive) | 17.3 µM (inactive) | > 100 µM (inactive) | 19.1 µM (inactive) | 58.7 µM (inactive) | > 100 µM (inactive) | 36.9 µM (inactive) | 38.8 µM (inactive) | 41.5 µM (inactive) | > 100 µM (inactive) | 95.9 µM (inactive)
3 | C(=N\c1ccc(-c2nc3ccccc3s2)cc1)/c1cccs1 | 52.4 µM (inactive) | 36.1 µM (inactive) | 42.5 µM (inactive) | 22.8 µM (inactive) | 39.6 µM (inactive) | 34.8 µM (inactive) | 43.3 µM (inactive) | 40.1 µM (inactive) | 49.2 µM (inactive) | 34 µM (inactive) | 68.5 µM (inactive) | 89.1 µM (inactive) | 30.3 µM (inactive) | 49.8 µM (inactive) | 25.1 µM (inactive) | 30.4 µM (inactive) | 0.617 µM (active) | 57.7 µM (inactive) | 88.3 µM (inactive) | 38.2 µM (inactive)
4 | COc1ccc2c(c1)CCc1cc(C(N)=O)c3nnnn3c1-2 | > 100 µM (inactive) | 12.2 µM (inactive) | > 54.3 µM (inactive) | 25.2 µM (inactive) | > 100 µM (inactive) | > 96.6 µM (inactive) | > 84.5 µM (inactive) | > 100 µM (inactive) | 23.6 µM (inactive) | 39.8 µM (inactive) | 18.2 µM (inactive) | > 100 µM (inactive) | 25.5 µM (inactive) | 39.3 µM (inactive) | 18.2 µM (inactive) | > 100 µM (inactive) | > 50.1 µM (inactive) | > 100 µM (inactive) | 64.7 µM (inactive) | 85.5 µM (inactive)
5 | NC(CSS(=O)(=O)c1ccccc1)C(=O)O (stereo not given) | > 10 µM (inactive) | > 10 µM (inactive) | > 10 µM (inactive) | > 10 µM (inactive) | > 10 µM (inactive) | > 10 µM (inactive) | > 10 µM (inactive) | > 10 µM (inactive) | > 10 µM (inactive) | > 10 µM (inactive) | > 10 µM (inactive) | > 10 µM (inactive) | > 10 µM (inactive) | > 10 µM (inactive) | > 10 µM (inactive) | > 10 µM (inactive) | > 10 µM (inactive) | > 10 µM (inactive) | > 10 µM (inactive) | > 10 µM (inactive)
6 | CCOC(=O)/C1=C(\C)N(Cc2ccccc2)C(=O)c2ccccc2C(=O)c2c(O)ccc(O)c21 | > 100 µM (inactive) | > 100 µM (inactive) | > 100 µM (inactive) | > 100 µM (inactive) | > 100 µM (inactive) | > 100 µM (inactive) | > 100 µM (inactive) | > 100 µM (inactive) | > 100 µM (inactive) | > 100 µM (inactive) | > 100 µM (inactive) | > 100 µM (inactive) | > 100 µM (inactive) | 34.7 µM (inactive) | > 100 µM (inactive) | > 100 µM (inactive) | > 100 µM (inactive) | > 100 µM (inactive) | > 100 µM (inactive) | > 100 µM (inactive)
7 | Cc1nc(Nc2ccc(Cl)c(Cl)c2)sc1C(/C=C/c1ccc2c(c1)OCO2)=N/Nc1ccc([N+](=O)[O-])cc1[N+](=O)[O-] | > 100 µM (inactive) | > 100 µM (inactive) | > 100 µM (inactive) | > 100 µM (inactive) | > 91.4 µM (inactive) | > 80.4 µM (inactive) | > 100 µM (inactive) | > 88.7 µM (inactive) | 41.1 µM (inactive) | > 78.5 µM (inactive) | > 100 µM (inactive) | > 100 µM (inactive) | 59.8 µM (inactive) | > 100 µM (inactive) | > 50.9 µM (inactive) | > 82.8 µM (inactive) | 80.9 µM (inactive) | > 100 µM (inactive) | 48.1 µM (inactive) | > 100 µM (inactive)
